According to patent publication US10246712B2, “Genetic or pharmacological reduction of PERK enhances cortical- and hippocampus-dependent cognitive function” (Carmel-Haifa University Economic Corp. Ltd, priority 2015, dated 2019):

Legend:
PERK [1] = target: T1, PERK (Rattus norvegicus, UniProt Q9Z1Z1); assay type: in vivo
T1 construct: the PERK shRNA lentivirus was stereotacticaly injected to the IC of adult rats; from tissue; host or cells: insular cortex of adult male Wistar Hola rats, in vivo
T1 sequence (Q9Z1Z1 28-1108): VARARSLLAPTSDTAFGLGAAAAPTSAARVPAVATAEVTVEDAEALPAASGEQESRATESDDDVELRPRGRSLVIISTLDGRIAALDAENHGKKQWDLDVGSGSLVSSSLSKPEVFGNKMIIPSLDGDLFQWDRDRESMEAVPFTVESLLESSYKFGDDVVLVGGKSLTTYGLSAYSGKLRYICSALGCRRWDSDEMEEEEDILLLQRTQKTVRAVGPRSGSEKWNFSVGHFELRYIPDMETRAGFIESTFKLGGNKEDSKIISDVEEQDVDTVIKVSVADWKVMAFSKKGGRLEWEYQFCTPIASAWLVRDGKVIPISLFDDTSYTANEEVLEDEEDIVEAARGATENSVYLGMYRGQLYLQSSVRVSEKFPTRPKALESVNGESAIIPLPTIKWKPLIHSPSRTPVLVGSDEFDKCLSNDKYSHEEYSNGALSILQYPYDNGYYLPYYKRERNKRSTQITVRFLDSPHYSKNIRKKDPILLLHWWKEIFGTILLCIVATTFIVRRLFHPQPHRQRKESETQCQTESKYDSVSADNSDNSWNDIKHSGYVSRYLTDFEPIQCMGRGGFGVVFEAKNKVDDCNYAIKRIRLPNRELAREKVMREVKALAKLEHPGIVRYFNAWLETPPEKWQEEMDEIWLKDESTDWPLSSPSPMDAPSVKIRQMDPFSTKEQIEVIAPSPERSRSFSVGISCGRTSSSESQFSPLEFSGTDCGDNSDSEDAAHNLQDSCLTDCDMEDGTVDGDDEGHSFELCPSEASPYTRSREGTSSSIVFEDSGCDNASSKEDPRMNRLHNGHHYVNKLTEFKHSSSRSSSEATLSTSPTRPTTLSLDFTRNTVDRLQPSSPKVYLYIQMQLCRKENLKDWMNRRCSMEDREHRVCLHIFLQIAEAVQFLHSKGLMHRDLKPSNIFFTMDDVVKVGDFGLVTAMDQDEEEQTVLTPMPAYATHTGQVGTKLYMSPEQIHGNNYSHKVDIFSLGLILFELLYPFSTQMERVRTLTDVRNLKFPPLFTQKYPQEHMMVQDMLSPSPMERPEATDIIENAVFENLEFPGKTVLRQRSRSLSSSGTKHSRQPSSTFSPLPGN
Protocol: Briefly, the rats were anesthetized by administration of equithesin (0.3 ml/100 g), comprising 2.12% (w/v) MgSO4, 10% (v/v) ethanol, 39.1% (v/v) propyleneglycol, 0.98% (w/v) sodium pentobarbital, and 4.2% (w/v) chloral hydrate. They were restrained in a stereotactic frame (Steolting Europe, Dublin-Ireland) and stainless steel guide cannulae (23-gauge) were bilaterally implanted into the insular cortex, angled at (with reference to bregma), anteroposterior=+1.2 mm, lateral±5.5 mm, and ventral 5.0 mm (1 mm ahead of injecting cannula). Two skull screws were inserted into the skull, and acrylic dental cement was applied to secure the cannulae in position. A 28 gauge stylus was inserted into each guide cannula to prevent clogging. The rats were allowed a week in individual cages to recover from the surgery, before the experimental manipulation. PERK inhibitor GSK2606414 (Axten et al., 2012) was dissolved in DMSO and further diluted in saline to a final DMSO concentration of 0.5%. A total of 1 μl of 100 nM GSK2606414 or vehicle was infused bilaterally. For microinfusion, the stylus was removed from the guide cannula and a 28 gauge injection cannula was carefully inserted, to extend 1.0 mm beyond the tip of the guide cannula. The injection cannula was connected via PE20 tubing to a Hamilton syringe (Hamilton) driven by a CMA/100 microinjection pump (Carnegie Medicine), to provide an injection rate of 1 μl/min. After 1 min of infusion, the injection cannula was kept in the guide cannula for an additional minute to minimize dragging of infused solutes along the injection tract. Locations of cannula were verified in 30 μm coronal sections.
Aversion to the novel taste, 0.3% NaCl was measured as described below.

PERK [2] = target: T2, PERK (Mus musculus, UniProt Q9Z2B5); assay type: in vivo
T2 construct: from tissue; host or cells: CA1 region of the hippocampus of C57BL/6 mice, in vivo
T2 sequence (Q9Z2B5 29-1114): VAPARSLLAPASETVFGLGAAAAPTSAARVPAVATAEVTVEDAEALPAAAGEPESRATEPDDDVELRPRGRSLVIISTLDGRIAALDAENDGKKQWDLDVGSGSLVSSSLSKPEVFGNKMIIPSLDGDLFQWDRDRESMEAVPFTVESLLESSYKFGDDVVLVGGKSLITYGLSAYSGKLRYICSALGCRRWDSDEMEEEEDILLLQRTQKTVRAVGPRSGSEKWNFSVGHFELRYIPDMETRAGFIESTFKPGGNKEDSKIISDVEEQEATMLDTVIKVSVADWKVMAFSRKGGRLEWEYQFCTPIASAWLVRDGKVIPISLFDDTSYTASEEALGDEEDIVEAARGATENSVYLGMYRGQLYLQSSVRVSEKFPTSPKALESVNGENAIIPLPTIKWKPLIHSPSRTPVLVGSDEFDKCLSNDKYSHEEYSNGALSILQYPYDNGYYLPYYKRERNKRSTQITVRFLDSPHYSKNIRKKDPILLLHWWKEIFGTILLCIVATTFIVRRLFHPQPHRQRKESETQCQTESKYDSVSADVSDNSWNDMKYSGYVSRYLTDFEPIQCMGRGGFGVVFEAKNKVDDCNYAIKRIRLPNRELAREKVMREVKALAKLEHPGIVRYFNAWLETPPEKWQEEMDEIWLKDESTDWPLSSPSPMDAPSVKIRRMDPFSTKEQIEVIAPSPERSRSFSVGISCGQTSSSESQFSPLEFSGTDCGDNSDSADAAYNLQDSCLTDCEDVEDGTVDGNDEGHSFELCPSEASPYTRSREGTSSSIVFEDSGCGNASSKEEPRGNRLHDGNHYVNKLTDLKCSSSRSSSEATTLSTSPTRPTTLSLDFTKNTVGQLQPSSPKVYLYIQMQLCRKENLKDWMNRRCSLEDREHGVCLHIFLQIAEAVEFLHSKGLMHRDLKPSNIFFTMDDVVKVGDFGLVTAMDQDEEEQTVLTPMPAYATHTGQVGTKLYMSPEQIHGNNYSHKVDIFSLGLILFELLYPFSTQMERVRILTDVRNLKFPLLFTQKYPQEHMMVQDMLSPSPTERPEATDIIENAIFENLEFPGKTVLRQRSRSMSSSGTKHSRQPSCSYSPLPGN
Description: Animals were anesthetized under 2% isoflurane using an isoflurane table top unit (HME109, Highland Medical Equipment). Under aseptic conditions, a rodent stereotaxic apparatus (Kopf Stereotaxic Alignment System Model 1900) with continuous 1% isoflurane anesthesia was used. For CA1 infusion cannula was implanted bilaterally into the CA1 region (from the bregma: −1.94 mm AP, ±1.0 mm ML, −1.0 mm DV). The implanted cannula was cemented on the skull. Each cannula was fitted with a 28 gauge dummy cannula that extended 0.1 mm beyond the tip of the guide cannula to prevent blockage of the guide cannula. After cannulation, mice were allowed to recover for 7 days before infusion of PERK inhibitor or vehicle and behavior. On conditioning day, randomly assigned mice were infused with 100 nM PERK inhibitor GSK2606414 (Axten et al., 2012) dissolved in dimethyl sulfoxide (DMSO) and further diluted in saline to a final DMSO concentration of 0.5%, via a 28-gauge infusion cannula connected by polyethylene (PE 20) tubing to a 10 μL Hamilton microsyringe (Hamilton Company). The infusion cannula protruded 0.25 mm beyond the guide cannula. For CA1 administration, infusion volume of 1 μl of 100 nM GSK2606414 or vehicle was delivered using a Harvard PHD2000 syringe pump (Harvard Apparatus) over the course of 1 min (at a rate of 1 μL/min). After infusion, the injection cannula was kept in the guide cannula for an additional minute to minimize dragging of infused solutes along the injection tract. Locations of cannula were verified in 30 μm coronal sections.
Model chambers measuring 25×25×25 cm internally (Panlab, Harvard Apparatus) were located inside a larger, insulated plastic cabinet that excluded external light and noise. For the trace fear conditioning protocol, mice were placed in a chamber (with light [20 W bulb] and a 16 bar metal grid floor) for 120 s, after which the mice received a 2.9 kHz tone, applied for 20 s at 80 dB (conditioned stimulus) and a 0.5 mA footshock applied for 2 s (unconditioned stimulus) 20 s following the end of the conditioned stimulus. This protocol was repeated 5 times, where each tone-shock presentation was separated by a 2-minute interval. After administration of the last shock, animals remained in the chamber for 2 minutes before they were taken back to the home cage. The chambers were cleaned with 10% ethanol between successive sets of mice. Animals from control and treatment groups were randomized between the 4 different chambers.

PERK [3] = assay type: in vivo, mouse; details: CA1 punches after 100 nM infusion into CA1; vs vehicle
Description: Animals were anesthetized under 2% isoflurane using an isoflurane table top unit (HME109, Highland Medical Equipment). Under aseptic conditions, a rodent stereotaxic apparatus (Kopf Stereotaxic Alignment System Model 1900) with continuous 1% isoflurane anesthesia was used. For CA1 infusion cannula was implanted bilaterally into the CA1 region (from the bregma: −1.94 mm AP, ±1.0 mm ML, −1.0 mm DV). The implanted cannula was cemented on the skull. Each cannula was fitted with a 28 gauge dummy cannula that extended 0.1 mm beyond the tip of the guide cannula to prevent blockage of the guide cannula. After cannulation, mice were allowed to recover for 7 days before infusion of PERK inhibitor or vehicle and behavior. On conditioning day, randomly assigned mice were infused with 100 nM PERK inhibitor GSK2606414 (Axten et al., 2012) dissolved in dimethyl sulfoxide (DMSO) and further diluted in saline to a final DMSO concentration of 0.5%, via a 28-gauge infusion cannula connected by polyethylene (PE 20) tubing to a 10 μL Hamilton microsyringe (Hamilton Company). The infusion cannula protruded 0.25 mm beyond the guide cannula. For CA1 administration, infusion volume of 1 μl of 100 nM GSK2606414 or vehicle was delivered using a Harvard PHD2000 syringe pump (Harvard Apparatus) over the course of 1 min (at a rate of 1 μL/min). […]

[4] = 100 nM bilateral infusion to CA1 50 min prior to acquisition, 48 h after conditioning, vs vehicle

SMILES: Cn1cc(-c2ccc3c(c2)CCN3C(=O)Cc2cccc(C(F)(F)F)c2)c2c(N)ncnc21 [GSK2606414, 7-methyl-5-(1-{[3-(trifluoromethyl)phenyl]acetyl}-2,3-dihydro-1H-indol-5-yl)-7H-pyrrolo[2,3-d]pyrimidin-4-amine]
- aversion index (CTA memory) (PERK [1]; 0.3% NaCl + 0.075 M LiCl i.p., 1 μl 100 nM into IC 20 min prior to novel taste, n=8): 72%±3.5
- extinction of CTA (PERK [1]; single injection of 100 nM into IC during CTA): not affected
- total drinking volumes (PERK [1]; vs vehicle group throughout the behavioral procedure, data not shown): similar
- freezing during tone presentation (tone memory) (PERK [2]; [4]): enhanced freezing
- freezing in the trace interval following the tone (trace memory) (PERK [2]; [4]): enhanced freezing
- context memory (freezing) (PERK [2]; 100 nM bilateral infusion to CA1, 24 h after conditioning, vs vehicle): not altered
- extinction (cue and trace) (PERK [2]; 100 nM infusion to CA1 at the time of conditioning): no effect
- total PERK levels (PERK [3]): no effect
